Measurements reported in patent US20240279221A1, “HETEROCYCLIC COMPOUNDS AND METHODS OF USE” (Schrödinger, Inc., priority 2021, published 2024).

Legend:
human SOS1 = human SOS1 (Homo sapiens (Human), UniProt Q07889); experiment: Surface Plasmon Resonance (SPR) SOS1 Binding Assay; conditions: biotinylated SOS1 (res. 564-1049), 25° C., kinetic or steady state fit, read-out: KD for hSOS1
Experimental: Binding to SOS1 was measured using a SPR assay with purified recombinant human SOS1 substrate (res. 564-1049 with N-terminal Avi tag; purified and biotinylated based on Hillig, et al., Proc Natl Acad Sci USA (2019); 116(7):2551-2560). SPR measurements were performed on a Biacore 8K SPR instrument (GE Healthcare, Sweden). Assays were performed at 25° C. using Series S SA sensor chips pre-coated with streptavidin (GE Healthcare, Cat. BR100531). Biotinylated SOS1 diluted in sample buffer (20 mM Tris HCl, 150 mM NaCl, 1 mM DTT, 0.05% TWEEN 20, 1 mM MgCl2, pH 8.0) was captured to one flow cell of the chip to about 3,000 resonance units (RU) using sample buffer supplemented with 5% DMSO as a running buffer. Serial dilutions of the assayed compounds in the running buffer at 100, 50 or 0.5 μM were injected for 60 s at a flow rate of 30 μL/min and association phases were recorded. Dissociation of the samples was monitored for 600 s. Data processing was performed using Biacore Insight Software (Biacore, GE Healthcare). Sensorgrams recorded on a SA flow cell without captured protein were subtracted from sensorgrams recorded on the SOS1 surface. Blank injections of running buffer were used for double referencing and solvent correction was applied to all sample sensorgrams to correct for buffer mismatches. KDs were estimated using a kinetic or steady state, where applicable, fitting model describing a reversible equilibrium with 1:1 binding between SOS1 and the compound.

[1] = molecular target: SOS1:KRAS (G12C) interaction (Homo sapiens (Human), UniProt Q07889); experiment: SOS1-KRas(G12C) FRET Assay; format: binding; conditions: 0.5 nM His10-SOS1 (res. 564-1049), 2.5 nM GST-KRAS (res. 1-169, G12C); read-out: SOS-KRas(G12C) FRET IC50
Sequence of SOS1:KRAS (G12C) interaction (Q07889 564-1049, stated change not applied): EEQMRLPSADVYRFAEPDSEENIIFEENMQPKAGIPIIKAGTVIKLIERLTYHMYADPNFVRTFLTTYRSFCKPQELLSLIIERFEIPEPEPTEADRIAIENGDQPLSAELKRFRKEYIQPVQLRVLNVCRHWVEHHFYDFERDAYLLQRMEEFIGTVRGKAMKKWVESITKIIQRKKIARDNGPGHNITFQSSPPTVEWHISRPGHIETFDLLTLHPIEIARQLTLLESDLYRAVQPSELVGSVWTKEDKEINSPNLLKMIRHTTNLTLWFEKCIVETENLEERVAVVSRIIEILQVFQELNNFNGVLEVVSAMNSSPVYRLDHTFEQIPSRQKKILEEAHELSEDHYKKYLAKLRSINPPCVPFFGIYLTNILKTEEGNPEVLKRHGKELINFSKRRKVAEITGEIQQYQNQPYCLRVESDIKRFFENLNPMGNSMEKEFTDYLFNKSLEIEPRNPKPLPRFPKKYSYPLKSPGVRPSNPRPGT
How it was run: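 Compounds were pre-incubated 15 min at 25° C with SOS1 (His10, res. 564-1049; 0.5 nM final) and anti-6His-XL665, then GST-KRAS G12C (res. 1-169; 2.5 nM final) with anti-GST-Eu(K) was added for 2 h at RT. The buffer was PBS, 0.1% BSA, 5 mM MgCl2, 100 mM KF, 5 mM DTT with 0.5% DMSO. The 665/615 nm signal was normalised to DMSO and no-SOS1 controls, and IC50 and Hill coefficient were fitted by non-linear regression.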

Sequence of human SOS1 (Q07889 564-1049): as the sequence (Q07889 564-1049, stated change not applied) above

| SMILES | Kd (human SOS1) [nM] | IC50 [1] [nM] |
| --- | --- | --- |
| C[C@@H](Nc1nn(C)c(=O)c2cc(=O)n(C3CC3)cc12)c1ccc2c(C#N)nn(C)c2c1 (single isomer, unassigned) [Example 25] | 225 | 3860 |
| C[C@H](Nc1nn(C)c(=O)c2cc(=O)n(C3CC3)cc12)c1ccc2c(C#N)nn(C)c2c1 (single isomer, unassigned) [Example 26] | > 50000 | 100000 |
| Cc1cc([C@@H](C)Nc2nn(C)c(=O)c3cc(=O)n(C4CC4)cc23)cc2c1c(C#N)nn2C (single isomer, unassigned) [Example 27] | 134 | 1530 |
| Cc1cc([C@H](C)Nc2nn(C)c(=O)c3cc(=O)n(C4CC4)cc23)cc2c1c(C#N)nn2C (single isomer, unassigned) [Example 28] | 3020 | 76200 |
| C[C@@H](Nc1nn(C)c(=O)c2cc(=O)n([C@@H]3CCOC[C@@H]3F)cc12)c1cccc(C(F)F)c1F (single isomer, unassigned) [Example 32] | 229 | 1050 |
| CC(Nc1nn(C)c(=O)c2cc(=O)n(C3CC3)cc12)c1cc(F)cc(C(F)(F)F)c1 (stereo not shown) [Example 159, 6-cyclopropyl-4-((1-(3-fluoro-5-(trifluoromethyl)phenyl)ethyl)amino)-2-methylpyrido[3,4-d]pyridazine-1,7(2H,6H)-dione] |  | 3480 |
| COCC(F)(F)c1cccc([C@H](C)Nc2nn(C)c(=O)c3cc(=O)n(C4(C(F)F)CC4)cc23)c1F [Example 162, 4-[[(1S)-1-[3-(1,1-difluoro-2-methoxy-ethyl)-2-fluoro-phenyl]ethyl]amino]-6-[1-(difluoromethyl)cyclopropyl]-2-methyl-pyrido[3,4-d]pyridazine-1,7-dione] |  | > 10000 |
| C[C@H](Nc1nn(C)c(=O)c2cc(=O)n(C3(C(F)F)CC3)cc12)c1cccc(C(F)(F)c2ccncc2)c1F [Example 175, (S)-4-((1-(3-(difluoro(pyridin-4-yl)methyl)-2-fluorophenyl)ethyl)amino)-6-(1-(difluoromethyl)cyclopropyl)-2-methyl-2,6-dihydropyrido[3,4-d]pyridazine-1,7-dione] |  | 4490 |
| Cc1cnc(C(F)(F)c2cccc([C@H](C)Nc3nn(C)c(=O)c4cc(=O)n(C5(C(F)F)CC5)cc34)c2F)cn1 [Example 177, (S)-4-((1-(3-(difluoro(5-methylpyrazin-2-yl)methyl)-2-fluorophenyl)ethyl)amino)-6-(1-(difluoromethyl)cyclopropyl)-2-methyl-2,6-dihydropyrido[3,4-d]pyridazine-1,7-dione] |  | > 10000 |
| C[C@H](Nc1nn(C)c(=O)c2cc(=O)n(C3(C(F)F)CC3)cc12)c1cccc2c1OCCC2(F)F [Example 181, (S)-4-((1-(4,4-difluorochroman-8-yl)ethyl)amino)-6-(1-(difluoromethyl)cyclopropyl)-2-methyl-2,6-dihydropyrido[3,4-d]pyridazine-1,7-dione] |  | > 10000 |
| C[C@@H](Nc1nn(C)c(=O)c2cc(=O)n(C3CC3)cc12)c1ccc2ccccc2c1 [Example 182, (R)-6-cyclopropyl-2-methyl-4-((1-(naphthalen-2-yl)ethyl)amino)-2,6-dihydropyrido[3,4-d]pyridazine-1,7-dione] |  | 2440 |

The next compounds have a lower IC50 [1] than those just listed; values first:

| Kd (human SOS1) [nM] | IC50 [1] [nM] | SMILES |
| --- | --- | --- |
| 43 | 211 | C[C@@H](Nc1nn(C)c(=O)c2cc(=O)n([C@H]3CCCOC3)cc12)c1cccc(C(F)F)c1F (single isomer, unassigned) [Example 38] |
|  | 179 | C[C@@H](Nc1nn(C)c(=O)c2cc(=O)n(C3(C(F)F)CC3)cc12)c1cccc2c1OCCC2(F)F [Example 180, (R)-4-((1-(4,4-difluorochroman-8-yl)ethyl)amino)-6-(1-(difluoromethyl)cyclopropyl)-2-methyl-2,6-dihydropyrido[3,4-d]pyridazine-1,7-dione] |
|  | 159 | C[C@@H](Nc1nn(C)c(=O)c2cc(=O)n(C34CC(C(F)(F)F)(C3)C4)cc12)c1cccc(C(F)F)c1F [Example 155, (R)-4-((1-(3-(difluoromethyl)-2-fluorophenyl)ethyl)amino)-2-methyl-6-(3-(trifluoromethyl)bicyclo[1.1.1]pentan-1-yl)pyrido[3,4-d]pyridazine-1,7(2H,6H)-dione] |
| 45 | 146 | C[C@@H](Nc1nn(C)c(=O)c2cc(=O)n([C@@H]3CCOC[C@H]3F)cc12)c1cccc(C(F)F)c1F (single isomer, unassigned) [Example 31] |
|  | 76 | C[C@@H](Nc1nn(C)c(=O)c2cc(=O)n(C34COC(CF)(C3)C4)cc12)c1cccc(C(F)F)c1F [Example 178, (R)-4-((1-(3-(difluoromethyl)-2-fluorophenyl)ethyl)amino)-6-(1-(fluoromethyl)-2-oxabicyclo[2.1.1]hexan-4-yl)-2-methyl-2,6-dihydropyrido[3,4-d]pyridazine-1,7-dione] |
|  | 75.6 | C[C@@H](Nc1nn(C)c(=O)c2cc(=O)n(C3(C(F)F)CC3)cc12)c1cccc2c(F)coc12 [Example 163, (R)-6-(1-(difluoromethyl)cyclopropyl)-4-((1-(3-fluorobenzofuran-7-yl)ethyl)amino)-2-methyl-2,6-dihydropyrido[3,4-d]pyridazine-1,7-dione] |
|  | 68.4 | C[C@@H](Nc1nn(C)c(=O)c2cc(=O)n(C34COC(C)(C3)C4)cc12)c1cccc(C(F)F)c1F [Example 179, (R)-4-((1-(3-(difluoromethyl)-2-fluorophenyl)ethyl)amino)-2-methyl-6-(1-methyl-2-oxabicyclo[2.1.1]hexan-4-yl)-2,6-dihydropyrido[3,4-d]pyridazine-1,7-dione] |
|  | 66.6 | C[C@@H](Nc1nn(C)c(=O)c2cc(=O)n(C3(C(F)(F)F)COC3)cc12)c1cccc(C(F)F)c1F [Example 156, (R)-4-((1-(3-(difluoromethyl)-2-fluorophenyl)ethyl)amino)-2-methyl-6-(3-(trifluoromethyl)oxetan-3-yl)-2,6-dihydropyrido[3,4-d]pyridazine-1,7-dione] |
| 10 | 43.9 | Cc1c([C@@H](C)Nc2nn(C)c(=O)c3c([C@@H]4CCCN4)c(=O)n(C4CC4)cc23)cccc1C(F)(F)F (single isomer, unassigned) [Example 34] |
|  | 36.7 | C[C@@H](Nc1nn(C)c(=O)c2cc(=O)n(C3(C(F)F)CC3)cc12)c1cccc2c1OCC2(F)F [Example 160, (R)-4-((1-(3,3-difluoro-2,3-dihydrobenzofuran-7-yl)ethyl)amino)-6-(1-(difluoromethyl)cyclopropyl)-2-methyl-2,6-dihydropyrido[3,4-d]pyridazine-1,7-dione] |
| 8 | 31.3 | C[C@@H](Nc1nn(C)c(=O)c2cc(=O)n([C@H]3CCOC[C@H]3F)cc12)c1cccc(C(F)F)c1F (single isomer, unassigned) [Example 33] |
|  | 24.9 | COCC(F)(F)c1cccc([C@@H](C)Nc2nn(C)c(=O)c3cc(=O)n(C4(C(F)F)CC4)cc23)c1F [Example 161, 4-[[(1R)-1-[3-(1,1-difluoro-2-methoxy-ethyl)-2-fluoro-phenyl]ethyl]amino]-6-[1-(difluoromethyl)cyclopropyl]-2-methyl-pyrido[3,4-d]pyridazine-1,7-dione] |
| 9 | 20.7 | C[C@@H](Nc1nn(C)c(=O)c2cc(=O)n([C@H]3CCOC[C@@H]3F)cc12)c1cccc(C(F)F)c1F (single isomer, unassigned) [Example 30] |
|  | 20.1 | Cc1cnc(C(F)(F)c2cccc([C@@H](C)Nc3nn(C)c(=O)c4cc(=O)n(C5(C(F)F)CC5)cc34)c2F)cn1 [Example 176, (R)-4-((1-(3-(difluoro(5-methylpyrazin-2-yl)methyl)-2-fluorophenyl)ethyl)amino)-6-(1-(difluoromethyl)cyclopropyl)-2-methyl-2,6-dihydropyrido[3,4-d]pyridazine-1,7-dione] |
|  | 18.5 | CC(=O)N1CC(C(F)F)(n2cc3c(N[C@H](C)c4cccc(C(F)F)c4F)nn(C)c(=O)c3cc2=O)C1 [Example 154, (R)-6-(1-acetyl-3-(difluoromethyl)azetidin-3-yl)-4-((1-(3-(difluoromethyl)-2-fluorophenyl)ethyl)amino)-2-methylpyrido[3,4-d]pyridazine-1,7(2H,6H)-dione] |
|  | 4.4 | C[C@@H](Nc1nn(C)c(=O)c2cc(=O)n(C3(C(F)F)CC3)cc12)c1cccc(C(F)(F)c2ccncc2)c1F [Example 174, (R)-4-((1-(3-(difluoro(pyridin-4-yl)methyl)-2-fluorophenyl)ethyl)amino)-6-(1-(difluoromethyl)cyclopropyl)-2-methyl-2,6-dihydropyrido[3,4-d]pyridazine-1,7-dione] |
